From PubChem BioAssay AID2060900 (Molecular Pharmacology Branch, DTP, NCI, 2025)

System: 521955-158-R2-J5-PDC complex spheroids, viability
Assay: Anticancer human tumor 521955-158-R2-J5-PDC patient-derived pancreatic carcinoma cell line growth inhibition [RAS]
Conditions: for IC50: curve of first compound; for viability, T/C: stronger effect = lower value; active = viability on the fitted dose curve at most 10% of control; inactive = the rest
Summary of the method: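 Multi-cell-type spheroids: tumor cells plus HUVEC endothelial cells and mesenchymal stem cells. RAS-pathway inhibitors were combined with targeted agents, each dosed in half-log steps down from clinical Cmax, or from 10 microM when Cmax was unknown.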

[1] = second compound 0.000949 µM, first compound 0.0316 µM
[2] = second compound 0.000949 µM, first compound 0.1 µM
[3] = second compound 0.000949 µM, first compound 0.316 µM
[4] = second compound 0.000949 µM, first compound 1 µM
[5] = second compound 0.003 µM, first compound 0.0316 µM
[6] = second compound 0.003 µM, first compound 0.1 µM
[7] = second compound 0.003 µM, first compound 0.316 µM
[8] = second compound 0.003 µM, first compound 1 µM
[9] = second compound 0.00949 µM, first compound 0.0316 µM
[10] = second compound 0.00949 µM, first compound 0.1 µM
[11] = second compound 0.00949 µM, first compound 0.316 µM
[12] = second compound 0.00949 µM, first compound 1 µM
[13] = second compound 0.03 µM, first compound 0.0316 µM
[14] = second compound 0.03 µM, first compound 0.1 µM
[15] = second compound 0.03 µM, first compound 0.316 µM
[16] = second compound 0.03 µM, first compound 1 µM
[17] = second compound 0.0949 µM, first compound 0.0316 µM
[18] = second compound 0.0949 µM, first compound 0.1 µM
[19] = second compound 0.0949 µM, first compound 0.316 µM
[20] = second compound 0.0949 µM, first compound 1 µM
[21] = second compound 0.3 µM, first compound 0.0316 µM
[22] = second compound 0.3 µM, first compound 0.1 µM
[23] = second compound 0.3 µM, first compound 0.316 µM
[24] = second compound 0.3 µM, first compound 1 µM
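Also: compound exposure lasted seven days before the viability read.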
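For viability, T/C in this document: spheroids also contain HUVEC endothelial cells and mesenchymal stem cells as stroma.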

CC(Nc1ccc2c(c1)OCCn1cc(N3C(=O)OCC3C(F)F)nc1-2)C(N)=O (stereo unspecified) + CCn1c(-c2cccnc2C(C)OC)c2c3cc(ccc31)N1CCOC(CC(NC(=O)C(C(C)C)N(C)C(=O)C3(F)CCN(C(=O)C#CC(C)(C)N(C)C)CC3)C(=O)N3CCCC(N3)C(=O)OCC(C)(C)C2)C1
131 nM: IC50 (second compound 0.000949 µM)
inactive: viability, T/C [1] 63.1% | viability, T/C [2] 46.7% | viability, T/C [3] 34.7% | viability, T/C [4] 27% | viability, T/C (second compound 0.000949 µM, first compound 3.16 µM) 83.6% | viability, T/C (second compound 0.000949 µM, first compound 10 µM) 17.9% | viability, T/C [5] 59.7% | viability, T/C [6] 36.6% | viability, T/C [7] 32.3% | viability, T/C [8] 23.8% | viability, T/C (second compound 0.003 µM, first compound 3.16 µM) 93.3% | viability, T/C (second compound 0.003 µM, first compound 10 µM) 16.3% | viability, T/C [9] 41.8% | viability, T/C [10] 46.3% | viability, T/C [11] 31.9% | viability, T/C [12] 26.3% | viability, T/C (second compound 0.00949 µM, first compound 3.16 µM) 108% | viability, T/C (second compound 0.00949 µM, first compound 10 µM) 15.6% | viability, T/C [13] 49.8% | viability, T/C [14] 44.2% | viability, T/C [15] 33.9% | viability, T/C [16] 30.8% | viability, T/C (second compound 0.03 µM, first compound 3.16 µM) 70.1% | viability, T/C (second compound 0.03 µM, first compound 10 µM) 13.9% | viability, T/C [17] 39.1% | viability, T/C [18] 33.6% | viability, T/C [19] 28% | viability, T/C [20] 22.4% | viability, T/C (second compound 0.0949 µM, first compound 3.16 µM) 74.8% | viability, T/C (second compound 0.0949 µM, first compound 10 µM) 13.6% | viability, T/C [21] 39.1% | viability, T/C [22] 32.6% | viability, T/C [23] 27.3% | viability, T/C [24] 24.9% | viability, T/C (second compound 0.3 µM, first compound 3.16 µM) 53.5% | viability, T/C (second compound 0.3 µM, first compound 10 µM) 12.8%
< 31.6 nM: IC50 (second compound 0.003 µM) | IC50 (second compound 0.00949 µM) | IC50 (second compound 0.03 µM) | IC50 (second compound 0.0949 µM) | IC50 (second compound 0.3 µM)

CC(C)n1nc(-c2ccc3oc(N)nc3c2)c2c(N)ncnc21 + C#Cc1c(F)ccc2cc(O)cc(-c3ncc4c(N5CC6CCC(C5)N6)nc(OCC56CCCN5CC(F)C6)nc4c3F)c12
< 0.316 nM: IC50 (second compound 0.316 µM) | IC50 (second compound 1 µM) | IC50 (second compound 3.16 µM) | IC50 (second compound 10 µM)
1.08 nM: IC50 (second compound 0.1 µM)
inactive: viability, T/C (second compound 0.0316 µM, first compound 0.000316 µM) 83.6% | viability, T/C (second compound 0.0316 µM, first compound 0.001 µM) 58.1% | viability, T/C (second compound 0.0316 µM, first compound 0.00316 µM) 46.7% | viability, T/C (second compound 0.0316 µM, first compound 0.01 µM) 27.2% | viability, T/C (second compound 0.0316 µM, first compound 0.0316 µM) 20.3% | viability, T/C (second compound 0.0316 µM, first compound 0.1 µM) 16.5% | viability, T/C (second compound 0.1 µM, first compound 0.000316 µM) 51.2% | viability, T/C (second compound 0.1 µM, first compound 0.001 µM) 51.9% | viability, T/C (second compound 0.1 µM, first compound 0.00316 µM) 40.8% | viability, T/C (second compound 0.1 µM, first compound 0.01 µM) 22.4% | viability, T/C (second compound 0.1 µM, first compound 0.0316 µM) 12.6% | viability, T/C (second compound 0.1 µM, first compound 0.1 µM) 12.4% | viability, T/C (second compound 0.316 µM, first compound 0.000316 µM) 42.1% | viability, T/C (second compound 0.316 µM, first compound 0.001 µM) 56.1% | viability, T/C (second compound 0.316 µM, first compound 0.00316 µM) 40.2% | viability, T/C (second compound 0.316 µM, first compound 0.01 µM) 24.4% | viability, T/C (second compound 0.316 µM, first compound 0.0316 µM) 13.6% | viability, T/C (second compound 1 µM, first compound 0.000316 µM) 49.6% | viability, T/C (second compound 1 µM, first compound 0.001 µM) 45.1% | viability, T/C (second compound 1 µM, first compound 0.00316 µM) 40.4% | viability, T/C (second compound 1 µM, first compound 0.01 µM) 22.1% | viability, T/C (second compound 1 µM, first compound 0.0316 µM) 13.7% | viability, T/C (second compound 3.16 µM, first compound 0.000316 µM) 42.6% | viability, T/C (second compound 3.16 µM, first compound 0.001 µM) 44.6% | viability, T/C (second compound 3.16 µM, first compound 0.00316 µM) 33.2% | viability, T/C (second compound 3.16 µM, first compound 0.01 µM) 21.3% | viability, T/C (second compound 3.16 µM, first compound 0.0316 µM) 11% | viability, T/C (second compound 10 µM, first compound 0.000316 µM) 38.9% | viability, T/C (second compound 10 µM, first compound 0.001 µM) 33.8% | viability, T/C (second compound 10 µM, first compound 0.00316 µM) 21.3% | viability, T/C (second compound 10 µM, first compound 0.01 µM) 17% | viability, T/C (second compound 10 µM, first compound 0.0316 µM) 10.4%
active: viability, T/C (second compound 0.316 µM, first compound 0.1 µM) 8.05% | viability, T/C (second compound 1 µM, first compound 0.1 µM) 8.36% | viability, T/C (second compound 3.16 µM, first compound 0.1 µM) 7.2% | viability, T/C (second compound 10 µM, first compound 0.1 µM) 7.51%
1.97 nM: IC50 (second compound 0.0316 µM)

O=C(c1ccc(F)c(F)c1Nc1ccc(I)cc1F)N1CC(O)([C@@H]2CCCCN2)C1 + CCn1c(-c2cccnc2C(C)OC)c2c3cc(ccc31)N1CCOC(CC(NC(=O)C(C(C)C)N(C)C(=O)C3(F)CCN(C(=O)C#CC(C)(C)N(C)C)CC3)C(=O)N3CCCC(N3)C(=O)OCC(C)(C)C2)C1
6.72 nM: IC50 (second compound 0.3 µM)
inactive: viability, T/C (second compound 0.000949 µM, first compound 0.00316 µM) 83% | viability, T/C (second compound 0.000949 µM, first compound 0.01 µM) 53.3% | viability, T/C [1] 43.4% | viability, T/C [2] 36.1% | viability, T/C [3] 32.2% | viability, T/C [4] 22% | viability, T/C (second compound 0.003 µM, first compound 0.00316 µM) 77.6% | viability, T/C (second compound 0.003 µM, first compound 0.01 µM) 62.5% | viability, T/C [5] 45.2% | viability, T/C [6] 36.1% | viability, T/C [7] 33% | viability, T/C [8] 18.6% | viability, T/C (second compound 0.00949 µM, first compound 0.00316 µM) 92.2% | viability, T/C (second compound 0.00949 µM, first compound 0.01 µM) 60.9% | viability, T/C [9] 58.5% | viability, T/C [10] 42.2% | viability, T/C [11] 28.3% | viability, T/C [12] 24.2% | viability, T/C (second compound 0.03 µM, first compound 0.00316 µM) 80% | viability, T/C (second compound 0.03 µM, first compound 0.01 µM) 59.6% | viability, T/C [13] 51.6% | viability, T/C [14] 39.2% | viability, T/C [15] 29% | viability, T/C [16] 22.2% | viability, T/C (second compound 0.0949 µM, first compound 0.00316 µM) 64.2% | viability, T/C (second compound 0.0949 µM, first compound 0.01 µM) 56.8% | viability, T/C [17] 43.2% | viability, T/C [18] 36.4% | viability, T/C [19] 32.4% | viability, T/C [20] 23.9% | viability, T/C (second compound 0.3 µM, first compound 0.00316 µM) 54.2% | viability, T/C (second compound 0.3 µM, first compound 0.01 µM) 46.5% | viability, T/C [21] 42.2% | viability, T/C [22] 37% | viability, T/C [23] 31.4% | viability, T/C [24] 17.8%
31.3 nM: IC50 (second compound 0.03 µM)
17.3 nM: IC50 (second compound 0.000949 µM)
41.3 nM: IC50 (second compound 0.00949 µM)
17.8 nM: IC50 (second compound 0.0949 µM)
27.1 nM: IC50 (second compound 0.003 µM)
